In PMC7616174, “Development of Novel 4-Arylpyridin-2-one and 6-Arylpyrimidin-4-one Positive Allosteric Modulators of the M1 Muscarinic Acetylcholine Receptor” (ChemMedChem, 2020):

Target: T1, hM1 mAChR (Homo sapiens, UniProt P11229)
T1 construct: expressed in transfected cells
T1 sequence (P11229 1-460): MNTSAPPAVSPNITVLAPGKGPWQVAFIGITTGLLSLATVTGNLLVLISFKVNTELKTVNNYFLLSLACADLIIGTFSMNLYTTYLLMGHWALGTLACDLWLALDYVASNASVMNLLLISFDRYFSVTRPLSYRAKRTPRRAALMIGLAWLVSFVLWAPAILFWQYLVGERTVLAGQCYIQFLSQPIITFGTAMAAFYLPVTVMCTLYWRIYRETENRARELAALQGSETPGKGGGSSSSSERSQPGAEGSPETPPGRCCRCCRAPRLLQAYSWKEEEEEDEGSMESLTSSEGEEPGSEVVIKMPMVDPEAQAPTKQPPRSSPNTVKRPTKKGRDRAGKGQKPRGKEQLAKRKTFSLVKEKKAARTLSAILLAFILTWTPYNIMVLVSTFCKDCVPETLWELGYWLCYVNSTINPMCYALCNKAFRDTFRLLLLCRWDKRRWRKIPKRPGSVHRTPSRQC
Assay: IP1 accumulation assay (ACh concentration-response curves in absence or presence of modulator)
Format: cell-based
Settings: FlpIn CHO hM1 cells, mean ± SEM, 3 experiments; for ΔpEC50 [1 μM]: change in ACh pEC50 in presence of M1 PAM compared to control curve / activation at 1 µM: 1 μM modulator; for activation at 1 µM: read-out: Δbaseline [1 μM]: change in basal response in presence of M1 PAM compared to control curve; for activation at 10 µM: read-out: Δbaseline [10 μM]: change in basal response in presence of M1 PAM compared to control curve
Description: Functional activity of the synthesized analogues as racemic mixtures was investigated in IP1 accumulation assays at the M1 mAChR, as described previously.[13–14] ACh concentration-response curves were generated in the absence or presence of a 1 and 10 μM concentration of each modulator. The change in baseline activity (Δbaseline) is an approximate measure of direct allosteric agonism (τB), whereas the pEC50 shift (ΔpEC50) is an approximate measure of functional cooperativity (αβ) of each modulator with ACh in the investigated signalling pathway. We aimed to identify modulators with various degrees of allosteric agonism and modulatory effects on ACh response, as these could generate distinct in vivo outcomes for applications in different conditions in the CNS or gastrointestinal (GI) tract.[[10g,h,j]]
The compounds were then fully characterised in two functional assays (Figure 2C and D); the Gq-coupled IP1 accumulation assay (Figure S2), which was used for the initial screening of the compounds, and a β-arrestin 2 recruitment assay (Figure S3). The operational efficacy (τB) values for the modulators and their functional cooperativity estimates with ACh (logαβACh) at both signalling pathways were estimated by applying an operational model of allosterism and agonism to the data [Eq. (3)],[16] and are listed in Table 5.
FlpIn CHO cells stably expressing the hM1 mAChR were seeded at 25000 per well of 96-well transparent cell culture plates and grown overnight. […] Cells were then stimulated with increasing concentration of ACh in the absence or presence of increasing concentrations of each modulator for 1 h at 37°C. […] Seven μL of cell lysates were transferred into wells of 384-well Proxiplates (Perki-nElmer Life Sciences), and IP1 levels were measured using the IP-One assay kit (Cisbio, Codolet, France). […] The signal was expressed as the HTRF ratio, interpolated from the standard curve, and normalized to the maximum response to ACh.
Changes in both baseline and pEC50 were quantified by subtracting the estimates at each M1 PAM concentrations with the control values. Propagation of the error on baseline and potency values were determined as follows [Eq. (1)]: σΔ=σPAM2+σcont.2 where σΔ is the standard error of the mean (SEM) for the change in value, and σPAM and σcont. are the SEM from the three-parameter logistic equation analysis in presence or absence of M1 PAM, respectively.
Functional interaction studies between ACh and allosteric modulators in IP1 and β-arrestin 2 recruitment assays were analysed according to a three-parameter logistic equation or the following operational model of allosterism and agonism [Eq. (3)].[16] E=Basal+(Em−Basal)([A](KB+αβ[B])+τB[B]EC50)^n/EC50n(KB+[B])^n+([A](KB+αβ[B])+τB[B]EC50)^n where Em is the maximal possible system response, and Basal is the response in the absence of agonist. [A] and [B] are concentrations of orthosteric and allosteric ligands, respectively. KB is the equilibrium dissociation constant of allosteric ligand, and EC50 is the concentration of orthosteric agonist required to achieve half maximal response. α and β represent the magnitude of the allosteric effects on orthosteric ligand affinity and efficacy, respectively; τB is the efficacy of allosteric ligand, and n is the slope factor of the transducer function that links occupancy to response.

ΔpEC50 [1 μM]: change in ACh pEC50 in presence of M1 PAM compared to control curve	ΔpEC50 [10 μM]: change in ACh pEC50 in presence of M1 PAM compared to control curve (10 μM modulator)	activation at 1 µM	activation at 10 µM (10 μM modulator)	Compound	Δbaseline [10 μM]: change in basal response in presence of M1 PAM compared to control curve (10 μM modulator)
0.02±0.06		1.37 ± 1.6%	5.99 ± 1.7%	COc1cccc(OCc2ccc(-c3cnn(C)c3)cc2)c1-c1cc(=O)n([C@H]2CCCC[C@@H]2O)cn1 (racemic) [Compound 26c, 3-(2-Hydroxycyclohexyl)-6-(2-methoxy-6-((4-(1-methyl-1H-pyra-zol-4-yl)benzyl)oxy)phenyl)pyrimidin-4(3H)-one]	
	0.41±0.07	0.47 ± 2%	4.4 ± 2%	Cc1ccc(OCc2ccc(-c3cnn(C)c3)cc2)c(-c2ccn(C3CCCCC3O)c(=O)c2)c1 (centres unmarked) [Compound 7a, 1-(2-Hydroxycyclohexyl)-4-(5-methyl-2-((4-(1-methyl-1H-pyrazol-4-yl)benzyl)oxy)phenyl)pyridin-2(1H)-one]	
	0.75±0.08	3.5 ± 1.9%	10.7 ± 2%	Cc1ccc(-c2ccn(C3CCCCC3O)c(=O)c2)c(OCc2ccc(-c3cnn(C)c3)cc2)c1 (centres unmarked) [Compound 7b, 1-(2-Hydroxycyclohexyl)-4-(4-methyl-2-((4-(1-methyl-1H-pyrazol-4-yl)benzyl)oxy)phenyl)pyridin-2(1H)-one]	
	0.41±0.08	-1.7%	2.8 ± 1.9%	Cc1cc(OCc2ccc(-c3cnn(C)c3)cc2)c(-c2ccn(C3CCCCC3O)c(=O)c2)cc1C (centres unmarked) [Compound 7c, 4-(4,5-Dimethyl-2-((4-(1-methyl-1H-pyrazol-4-yl)benzyl)oxy)phenyl)-1-(2-hydroxycyclohexyl)pyridin-2(1H)-one]	
0.04±0.09	0.21±0.10	-1.09%	1.24 ± 3%	Cn1cc(-c2ccc(COc3ccncc3-c3ccn(C4CCCCC4O)c(=O)c3)cc2)cn1 (centres unmarked) [Compound 7d, 1’-(2-Hydroxycyclohexyl)-4-((4-(1-methyl-1H-pyrazol-4-yl)benzyl)oxy)-[3,4’-bipyridin]-2’(1’H)-one]	
1.17±0.22	1.47±0.35	41.9 ± 4.4%	79.4 ± 2.9%	Cn1cc(-c2ccc(COc3cnccc3-c3ccn(C4CCCCC4O)c(=O)c3)cc2)cn1 (centres unmarked) [Compound 7e, 1-(2-Hydroxycyclohexyl)-3’-((4-(1-methyl-1H-pyrazol-4-yl)benzyl)oxy)-[4,4’-bipyridin]-2(1H)-one]	
0.14±0.19	0.35±0.34	12.8 ± 4.4%	45.8 ± 4.8%	Cn1cc(-c2ccc(COc3cccc(O)c3-c3ccn(C4CCCCC4O)c(=O)c3)cc2)cn1 (centres unmarked) [Compound 7g, 4-(2-Hydroxy-6-((4-(1-methyl-1H-pyrazol-4-yl)benzyl)oxy)phenyl)-1-(2-hydroxycyclohexyl)pyridin-2(1H)-one]	
0.12±0.09	0.69±0.08	5 ± 2%	5.6 ± 2%	Cn1cc(-c2ccc(Cn3cccc(-c4ccn(C5CCCCC5O)c(=O)c4)c3=O)cc2)cn1 (centres unmarked) [Compound 9, 1’-(2-Hydroxycyclohexyl)-1-(4-(1-methyl-1H-pyrazol-4-yl)benzyl)-[3,4’-bipyridine]-2,2’(1H,1’H)-dione]	
	0.17±0.06	5 ± 1.7%	-1.9%	Cn1cc(-c2ccc(COc3ccccc3-c3ccn(C4CCCCC4)c(=O)c3)cc2)cn1 [Compound 13b, 1-Cyclohexyl-4-(2-((4-(1-methyl-1H-pyrazol-4-yl)benzyl)oxy)phenyl)pyridin-2(1H)-one]	
0.03±0.06	0.96±0.07	5.8 ± 1.5%	22.1 ± 1.6%	COC1CCCCC1n1ccc(-c2ccccc2OCc2ccc(-c3cnn(C)c3)cc2)cc1=O (centres unmarked) [Compound 14, 1-(2-Methoxycyclohexyl)-4-(2-((4-(1-methyl-1H-pyrazol-4-yl)benzyl)oxy)phenyl)pyridin-2(1H)-one]	
	0.27±0.06			Cn1cc(-c2ccc(COc3ccccc3-c3ccc(-c4ccccc4O)cc3)cc2)cn1 [Compound 19, 2“-((4-(1-Methyl-1H-pyrazol-4-yl)benzyl)oxy)-[1,1’:4’,1“-terphenyl]-2-ol]	
		100%	100%	Cn1cc(-c2ccc(COc3ccsc3-c3cc(=O)n(C4CCCCC4O)cn3)cc2)cn1 (centres unmarked) [Compound 26b, 3-(2-Hydroxycyclohexyl)-6-(3-((4-(1-methyl-1H-pyrazol-4-yl)benzyl)oxy)thiophen-2-yl)pyrimidin-4(3H)-one]	
1.49±0.42		82.1 ± 3%	100%	Cn1cc(-c2ccc(COc3cccc(O)c3-c3cc(=O)n(C4CCCCC4O)cn3)cc2)cn1 (centres unmarked) [Compound 26d, 6-(2-Hydroxy-6-((4-(1-methyl-1H-pyrazol-4-yl)benzyl)oxy)phenyl)-3-(2-hydroxycyclohexyl)pyrimidin-4(3H)-one]	
		100%	100%	O=c1cc(-c2ccccc2OCc2ccc(-n3cccn3)cc2)ncn1C1CCCCC1O (centres unmarked) [Compound 27c, 6-(2-((4-(1H-Pyrazol-1-yl)benzyl)oxy)phenyl)-3-(2-hydroxycyclo-hexyl)pyrimidin-4(3H)-one]	
0.40±0.24	0.26±0.55	53.7 ± 3.8%	72.9 ± 3.6%	COC1CCCCC1n1cnc(-c2ccccc2OCc2ccc(-c3cnn(C)c3)cc2)cc1=O (centres unmarked) [Compound 28a, 3-(2-Methoxycyclohexyl)-6-(2-((4-(1-methyl-1H-pyrazol-4-yl)benzyl)oxy)phenyl)pyrimidin-4(3H)-one]	

Compound	ΔpEC50 [1 μM]: change in ACh pEC50 in presence of M1 PAM compared to control curve	ΔpEC50 [10 μM]: change in ACh pEC50 in presence of M1 PAM compared to control curve (10 μM modulator)	activation at 1 µM	activation at 10 µM (10 μM modulator)	Δbaseline [10 μM]: change in basal response in presence of M1 PAM compared to control curve (10 μM modulator)
4-(2-(Benzyloxy)phenyl)-1-(2-hydroxycyclohexyl)pyridin-2(1H)-one [Compound 27d]	0.75±0.06	1.83±0.11			54.6±1.9 % of ACh maximal (Emax) response
